Common to all, as to assay: Test D pre-/postemergence herbicide test
One test relates to radish, wild. Type of test: in vivo, Raphanus raphanistrum. The following applies: for Plant response rating: Postemergence, Radish, Wild, scale 0 to 100; for Plant response rating, Radish, Wild: Preemergence, scale 0 to 100 (0 no effect, 100 complete control). From the text: (§1) Seeds of plant species selected from bluegrass (annual bluegrass, Poa annua), blackgrass (Alopecurus myosuroides), canarygrass (littleseed canarygrass, Phalaris minor), chickweed (common chickweed, Stellaria media), galium (catchweed bedstraw, Galium aparine), bromegrass, downy (downy bromegrass, Bromus tectorum), field poppy (Papaver rhoeas), field violet (Viola arvensis), foxtail, green (green foxtail, Setaria viridis), deadnettle (henbit deadnettle, Lamium amplexicaule), ryegrass, Italian (Italian ryegrass, Lolium multiflorum), kochia (Kochia scoparia), lambsquarters (Chenopodium album), oilseed rape (Brassica napus), pigweed (Amaranthus retroflexus), chamomile (scentless chamomile, Matricaria inodora), Russian thistle (Salsola kali), speedwell (bird's-eye speedwell, Veronica persica), barley, spring (spring barley, Hordeum vulgare), wheat, spring (spring wheat, Triticum aestivum), buckwheat, wild (wild buckwheat, Polygonum convolvulus), mustard, wild (wild mustard, Sinapis arvensis), oat, wild (wild oat, Avena fatua), radish, wild (wild radish, Raphanus raphanistrum), […]), barley, winter (winter barley, Hordeum vulgare), and wheat, winter (winter wheat, Triticum aestivum) were planted into a silt loam soil and treated preemergence with test chemicals formulated in a non-phytotoxic solvent mixture which included a surfactant. At the same time, these species were planted in pots containing Redi-Earth® planting medium (Scotts Company, 14111 Scottslawn Road, Marysville, Ohio 43041) comprising spaghnum peat moss, vermiculite, wetting agent and starter nutrients and treated with postemergence applications of the test chemicals formulated in the same manner. Plants ranged in height from 2 to 18 cm (1- to 4-leaf stage). Treated plants and controls were maintained in a controlled growth environment for 7 to 21 days after which time all species were compared to controls and visually evaluated. Plant response ratings, summarized in Table D, are based on a scale of 0 to 100 where 0 is no effect and 100 is complete control. A dash (-) response means no test result.

Another test relates to field poppy. It is filed as in vivo, Papaver rhoeas. The conditions noted are these: for Plant response rating: Field Poppy, scale 0 to 100; for Plant response rating, Field Poppy: scale 0 to 100 (0 no effect, 100 complete control).
Text: as §1

In the next test the test system is lambsquarters. It is filed as in vivo, Chenopodium album. The following applies: for Plant response rating: Lambsquarters, scale 0 to 100; for Plant response rating, Lambsquarters: scale 0 to 100 (0 no effect, 100 complete control).
Text: as §1

Turning to `O=C1NCC(c2ccc(F)c(F)c2)C1C(=O)Nc1cccc(F)c1` (racemic) [Compound 12], the Plant response rating with radish, wild (16 g ai/ha) was 0; with radish, wild (31 g ai/ha), 0; with radish, wild (62 g ai/ha) it was 20; with radish, wild (125 g ai/ha) it was 25; in the test on radish, wild (250 g ai/ha), 25; with field poppy (Postemergence, 16 g ai/ha) it was 0. Moreover, the Plant response rating with field poppy (Postemergence, 31 g ai/ha) was found to be 0; in the test on field poppy (Postemergence, 62 g ai/ha), 50; in the test on field poppy (Postemergence, 125 g ai/ha), 60; with field poppy (Postemergence, 250 g ai/ha), 80; in the test on field poppy (Preemergence, 125 g ai/ha), 0; with field poppy (Preemergence, 250 g ai/ha) it was 0. Moreover, the Plant response rating in the test with lambsquarters (Postemergence, 16 g ai/ha) came out at 0; in the test on lambsquarters (Postemergence, 31 g ai/ha), 0; with lambsquarters (Postemergence, 62 g ai/ha) it was 10; in the test with lambsquarters (Postemergence, 125 g ai/ha) it was 10; with lambsquarters (Postemergence, 250 g ai/ha) it was 25; in the test on lambsquarters (Preemergence, 125 g ai/ha), 30. The Plant response rating with lambsquarters (Preemergence, 250 g ai/ha) was determined as 30. The “Plant response rating, Radish, Wild” value in the test on radish, wild (16 g ai/ha) is on record as 0. Moreover, the “Plant response rating, Field Poppy” value in the test on field poppy (Preemergence, 31 g ai/ha) was 0; in the test on field poppy (Preemergence, 62 g ai/ha) it was 0; with field poppy (Preemergence, 16 g ai/ha) it was 0. Also, the “Plant response rating, Lambsquarters” value in the test on lambsquarters (Preemergence, 31 g ai/ha) is 0; in the test on lambsquarters (Preemergence, 62 g ai/ha), 0; in the test with lambsquarters (Preemergence, 16 g ai/ha) it was 0.
With `O=C1NCC(c2cc(F)c(F)c(F)c2)C1C(=O)Nc1ccccc1C(F)(F)F` (racemic) [Compound 33], the Plant response rating in the test with radish, wild (16 g ai/ha) amounted to 0; in the test with radish, wild (31 g ai/ha), 0; with radish, wild (62 g ai/ha), 0; in the test on radish, wild (125 g ai/ha), 0; in the test with radish, wild (250 g ai/ha), 0; with field poppy (Postemergence, 16 g ai/ha), 0. In addition, the Plant response rating in the test with field poppy (Postemergence, 31 g ai/ha) came to 0; in the test with field poppy (Postemergence, 62 g ai/ha) it was 0; in the test on field poppy (Postemergence, 125 g ai/ha), 0; in the test with field poppy (Postemergence, 250 g ai/ha) it was 0; in the test on lambsquarters (Postemergence, 16 g ai/ha) it was 0; in the test with lambsquarters (Postemergence, 31 g ai/ha), 0. Moreover, the Plant response rating was 0 in the test on lambsquarters (Postemergence, 62 g ai/ha); 0 in the test with lambsquarters (Postemergence, 125 g ai/ha); 20 in the test on lambsquarters (Postemergence, 250 g ai/ha).
As for `O=C1NCC(c2cc(F)c(F)c(F)c2)C1C(=O)Nc1ccccc1F` (racemic) [Compound 34], the Plant response rating in the test with radish, wild (16 g ai/ha) is 0; in the test on radish, wild (31 g ai/ha), 0; in the test on radish, wild (62 g ai/ha), 0; with radish, wild (125 g ai/ha), 0; in the test on radish, wild (250 g ai/ha), 0; in the test with field poppy (Postemergence, 16 g ai/ha) it was 0. In addition, the Plant response rating was 0 in the test with field poppy (Postemergence, 31 g ai/ha); 0 with field poppy (Postemergence, 62 g ai/ha); 0 with field poppy (Postemergence, 125 g ai/ha); 20 in the test on field poppy (Postemergence, 250 g ai/ha); 0 with lambsquarters (Postemergence, 16 g ai/ha); 0 in the test with lambsquarters (Postemergence, 31 g ai/ha). The Plant response rating came out at 0 with lambsquarters (Postemergence, 62 g ai/ha); 0 with lambsquarters (Postemergence, 125 g ai/ha); 20 with lambsquarters (Postemergence, 250 g ai/ha).
As for `O=C1NCC(c2cccc(C(F)(F)F)c2)C1C(=O)Nc1ccc(F)cc1F` (racemic) [Compound 207], the “Plant response rating, Radish, Wild” value was found to be 15 in the test on radish, wild (31 g ai/ha); 10 with radish, wild (62 g ai/ha); 15 in the test with radish, wild (125 g ai/ha); 15 in the test with radish, wild (250 g ai/ha). For the same molecule, the “Plant response rating, Field Poppy” value in the test on field poppy (Preemergence, 31 g ai/ha) was found to be 55; in the test on field poppy (Preemergence, 62 g ai/ha), 75; in the test with field poppy (Preemergence, 125 g ai/ha), 80. Besides, the Plant response rating is given as 100 with field poppy (Preemergence, 250 g ai/ha) and 90 in the test with lambsquarters (Preemergence, 250 g ai/ha). In addition, the “Plant response rating, Lambsquarters” value in the test with lambsquarters (Preemergence, 31 g ai/ha) was 0; in the test with lambsquarters (Preemergence, 62 g ai/ha), 30; with lambsquarters (Preemergence, 125 g ai/ha), 65.

Values taken from US10294202B2, “Pyrrolidinones as herbicides” (FMC Corporation, priority 2013, dated 2019).
